These results are taken from US20180002371A1 (BAYLOR COLLEGE OF MEDICINE, priority 2014, published 2018).

One data set relates to Female ICR mice. Nature of the data set: Electrocardiogram (EKG) measurements in mice. It is filed as in vivo, mouse.
For data set [1], the system named is MDA-MB-231-LM3-3 orthotopic breast tumors. Nature of the data set: Therapeutic efficacy in an orthotopic TNBC mouse model. It is filed as in vivo. The following applies: 0.75 mg/kg three times per week. The protocol:
Therapeutic Efficacy of 3-phospho-bufalin in an Orthotopic TNBC Mouse Model. To establish orthotopic breast tumors, 0.75×10^6 MDA-MB-231-LM3-3 cells were injected into one of the second mammary fat pads of nude mice (Charles River Laboratories, female, 6-7 weeks, n=6/group). When tumors became palpable, generally 14 days after injection, mice were randomized into two groups. The treatment group was then injected with phospho-bufalin subcutaneously (0.75 mg/kg per dose, 3 doses per week) for 3 weeks while the control group received PBS. Tumor lengths and widths were measured three times per week. Tumor sizes were calculated by: (length×width×width)/2.
The therapeutic efficacy of P-Buf was tested in an orthotopic TNBC model. LM3-3 cells (0.75×10^6 cells per mouse) were inoculated into the second pair of mammary gland fat pads of nude mice (female, […]). The mice were randomized into two groups based on luciferase imaging (n=6 per group). Fourteen days after tumor inoculation, the treatment group began receiving P-Buf (0.75 mg/kg) three times per week while the control group received PBS. Tumor volumes were measured three times per week. […] At day 31, the mice were euthanized and tumors were harvested. The tumors derived from PBS treated mice weighed ˜2.4 times more than those of the experimental treatment group (FIGS. 8B and C).

The nature of data set [2]: Pharmacokinetic studies of bufalin and 3-phospho-bufalin. Conditions: p-buf 0.5 mg/kg i.p.
Protocol: Five quality control (QC) samples at 10 ng/mL, 20 ng/mL, 500 ng/mL, 4000 ng/mL and 8000 ng/mL of plasma were prepared independently of those used for the calibration curves. QC samples were prepared on the day of analysis in the same way as the calibration standards.
Standards, QC samples, and unknown samples were injected into a LC/MS/MS machine for quantitative analysis. […] For i.p. injected P-Buf, the PK trace was fittedto a non-compartmental extravascular model.
P-Buf was dissolved in PBS and administered intraperitoneally at the same dose.
The test system of the next data set is mouse heart tissues. The data set can be described thus: H-E staining of mouse heart tissues. It is filed as in vivo. The following applies: 24 hours after drug administration.
In data set [3] the test system is LM3-3 cells. Nature of the data set: Single cell motility assay. Format: cell-based. Here is the method: Single Cell Motility Assays. Microtiter 96-well plates pre-coated with collagen V were covered with beads provided by a Cell Motility HCS kit (Thermo Scientific Co. Cat# K0800011). LM3-3 cells (500) were seeded in each bead-coated well. […] The cell track areas (pixels) were counted using Image J. To attain statistical significance, more than 50 cell tracks in each sample were counted.

The subject of the next data set is SUM149PT. The data set can be described thus: Cell cytotoxicity assay (MTT), SUM149PT. It is filed as cell-based. The following applies: 72 h, read-out: IC50 cell viability. Here is the method: (§1) Cell Culture. Triple negative breast cancer (TNBC) cell lines HCC1143, SUM149PT, SUM159PT, and MDA-MB-231 were obtained from ATCC. The MDA-MB-231-LM3-3 (LM3-3) cell line was developed from lung metastasis derived from a MDA-MB-231-LM2 xenograft tumor in the mammary fat pad of a SCID mouse.
(§2) The HCC1143 cell line was grown in RPMI-1640 medium, SUM149PT and SUM159PT cell lines were grown in F-12 medium, and MDA-MB-231 cells were grown in DMEM. All culture media were supplemented with 10% fetal bovine serum. All cell lines were grown in a humidified incubator containing 5% CO2 at 37° C. Primary hepatocytes were isolated from an adult male mouse (C57BL) by collagenase perfusion (0.8 mg/mL; Sigma-Aldrich, C5138) through the portal vein and maintained in M199 medium with 10% FBS. The viability of freshly isolated hepatocytes was verified using Trypan blue staining.
(§3) Cell Cytotoxicity Assays. TNBC cells (5000 to 7000 cells per well) were seeded in 96-well plates in medium supplemented with 10% FBS. […] Cell viabilities relative to untreated control cells were plotted using Graphpad Prism.

The next data set deals with HCC1143. The data set can be described thus: Cell cytotoxicity assay (MTT), HCC1143. Conditions: HCC1143, 72 h, read-out: IC50 cell viability. Format: cell-based. The protocol:
as §1, §2, §3

Data set [4] concerns the target T1, SRC-3 (Homo sapiens, UniProt Q9Y6Q9).
T1 construct: endogenous in cells; host or cells: HCC1143, SUM149PT, SUM159PT, MDA-MB-231, MDA-MB-231-LM3-3
The following applies: receptor interacting domain; cited from earlier work.

Another data set deals with SUM159PT. Nature of the data set: Cell cytotoxicity assay (MTT), SUM159PT. Format: cell-based. The following applies: 72 h, read-out: IC50 cell viability. The protocol: as §1, §2, §3
Data set [5] addresses T1, SRC-3. The data set can be described thus: Western blotting of SRC-3 protein in TNBC cells. Format: cell-based. The protocol:
Western Blotting Assays. Cell lysate was prepared by adding RIPA buffer (containing 10 mM Tris-Cl pH 8.0, 1 mM EDTA, 0.5 mM EGTA, 1% Triton X-100, 0.1% sodium deoxycholate, 0.1% SDS, 140 mM NaCl, and protease inhibitors) to cells kept on ice. After spinning samples at 16,000 rpm for 15 minutes at 4 ° C., insoluble materials in the collected cell lysate were precipitated and discarded. The total protein concentration was measured using a Bradford protein assay. An equivalent mass of each sample was loaded and electrophoretically separated by 10% SDS-PAGE. Then, proteins on PAGE the gel were transferred to a PVDF membrane. Anti-SRC-3 (Cell Signaling Technology Co. Cat#2126) and anti-actin (Cell Signaling Technology Co. Cat#8457) were used to probe the membranes.
For orientation: Immunoblotting shows a protein as a band on a membrane.

The test system of the next data set is MDA-MB-231. Nature of the data set: Cell cytotoxicity assay (MTT), MDA-MB-231. It is filed as cell-based. The following applies: MDA-MB-231, 72 h, read-out: IC50 cell viability. The protocol:
as §1, §2, §3

A further data set concerns cancer cells. Conditions: cited from earlier work.
Data set [6] deals with LM3-3 cells. The data set can be described thus: Bufalin and gefitinib cotreatment, cell viability. It is filed as cell-based.
The next data set has as its system MDA-MB-231-LM3-3. The data set can be described thus: Cell cytotoxicity assay (MTT), MDA-MB-231-LM3-3. Format: cell-based. The following applies: MDA-MB-231-LM3-3, 72 h, read-out: IC50 cell viability. Here is the method:
as §1, §2, §3

[7] abbreviates: 3-phospho-bufalin 7.5 mg/kg i.p., +10 min post-injection.
Setting [8] is: 3-phospho-bufalin 7.5 mg/kg i.p., −5 min post-injection (baseline).
Where [9] appears, read: 3-phospho-bufalin 11.25 mg/kg i.p., +5 min post-injection.
Setting [10] is: 3-phospho-bufalin 11.25 mg/kg i.p., +10 min post-injection.
Where [11] appears, read: 3-phospho-bufalin 11.25 mg/kg i.p., +15 min post-injection.
The mark [12] stands for this setting: 3-phospho-bufalin 11.25 mg/kg i.p., −5 min post-injection (baseline).

T1 sequence (Q9Y6Q9 whole entry): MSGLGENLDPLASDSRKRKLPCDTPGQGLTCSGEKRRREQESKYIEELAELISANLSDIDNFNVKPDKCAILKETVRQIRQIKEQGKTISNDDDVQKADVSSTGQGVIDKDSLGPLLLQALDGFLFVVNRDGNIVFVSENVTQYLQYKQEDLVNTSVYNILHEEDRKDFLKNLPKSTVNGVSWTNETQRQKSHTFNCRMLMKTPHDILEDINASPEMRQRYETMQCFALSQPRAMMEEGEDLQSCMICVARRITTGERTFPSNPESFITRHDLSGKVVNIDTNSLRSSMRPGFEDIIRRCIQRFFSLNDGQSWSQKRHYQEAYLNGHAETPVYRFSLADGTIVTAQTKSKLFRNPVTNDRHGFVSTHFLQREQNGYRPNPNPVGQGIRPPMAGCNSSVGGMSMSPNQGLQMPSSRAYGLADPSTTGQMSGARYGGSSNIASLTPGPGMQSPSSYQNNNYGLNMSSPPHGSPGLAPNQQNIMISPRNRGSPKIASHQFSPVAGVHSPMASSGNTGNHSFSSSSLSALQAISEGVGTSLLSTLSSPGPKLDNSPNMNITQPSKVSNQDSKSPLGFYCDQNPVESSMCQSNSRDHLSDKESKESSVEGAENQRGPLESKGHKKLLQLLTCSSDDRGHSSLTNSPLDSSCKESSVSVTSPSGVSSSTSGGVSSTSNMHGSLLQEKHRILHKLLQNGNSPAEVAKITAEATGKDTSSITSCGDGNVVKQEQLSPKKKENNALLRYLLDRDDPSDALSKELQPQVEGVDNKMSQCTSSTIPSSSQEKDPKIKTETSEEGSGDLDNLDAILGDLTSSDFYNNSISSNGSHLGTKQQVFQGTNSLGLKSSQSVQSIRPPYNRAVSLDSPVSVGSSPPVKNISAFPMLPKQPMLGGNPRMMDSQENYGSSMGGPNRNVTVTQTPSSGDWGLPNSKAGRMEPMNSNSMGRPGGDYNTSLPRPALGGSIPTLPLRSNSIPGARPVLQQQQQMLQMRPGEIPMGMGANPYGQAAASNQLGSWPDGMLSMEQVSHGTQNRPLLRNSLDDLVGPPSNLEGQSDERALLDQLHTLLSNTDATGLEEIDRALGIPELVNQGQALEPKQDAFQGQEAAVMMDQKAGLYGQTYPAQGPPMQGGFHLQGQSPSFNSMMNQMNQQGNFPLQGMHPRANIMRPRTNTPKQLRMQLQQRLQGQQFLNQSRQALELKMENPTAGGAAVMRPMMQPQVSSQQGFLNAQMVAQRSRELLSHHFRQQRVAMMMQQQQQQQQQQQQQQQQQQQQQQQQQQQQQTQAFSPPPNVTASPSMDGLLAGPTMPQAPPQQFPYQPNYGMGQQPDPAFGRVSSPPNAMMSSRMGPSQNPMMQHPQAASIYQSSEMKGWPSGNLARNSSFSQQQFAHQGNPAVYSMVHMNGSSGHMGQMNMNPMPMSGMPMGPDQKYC
Protocol for Female ICR mice: Electrocardiogram (EKG) Measurements. […] Non-invasive EKG recordings were made using the ECGenie system (Mouse Specifics) at several subsequent time points. […] Data acquisition was performed using the program LabChart 6 (ADlnstruments). Individual EKG signals were then evaluated using e-MOUSE physiologic waveform analysis software (Mouse Specifics) as previously described.

Take `C[C@]12CC[C@H](OP(=O)(O)O)C[C@H]1CC[C@@H]1[C@@H]2CC[C@]2(C)[C@@H](c3ccc(=O)oc3)CC[C@]12O` [3-Phospho-Bufalin, 3-Phospho-bufalin]: the “changes in EKG parameters” value with Female ICR mice (7.5 mg/kg and 11.25 mg/kg i.p.) is recorded as “no significant changes in EKG parameters were observed”. Further, in the data set with Female ICR mice (setting [7]), the HR was found to be 788.7 ± 1.2 BPM, the QRS was 11.0 ± 0.1 ms, the QT is recorded as 38.2 ± 0.9 ms and the QTc came out at 43.8 ± 1.0 ms. Moreover, in the data set with Female ICR mice (setting [7]), the RR came out at 76.1 ± 0.1 ms and the ST stood at 27.6 ± 0.9 ms. In the data set with Female ICR mice (setting [8]), this compound returned an HR of 754.7 ± 6.6 BPM, a QRS of 10.6 ± 0.1 ms, a QT of 40.2 ± 0.6 ms and a QTc of 45.0 ± 0.5 ms. For the same compound, in the data set on Female ICR mice (setting [8]), the RR turned out to be 79.6 ± 0.7 ms and the ST turned out to be 30.1 ± 0.7 ms. In the data set with Female ICR mice (setting [9]), the HR was 779.7 ± 1.5 BPM, the QRS was 10.9 ± 0.1 ms, the QT came out at 37.1 ± 0.3 ms and the QTc is listed as 42.3 ± 0.4 ms. In the data set with Female ICR mice (setting [9]), the RR stood at 77.0 ± 0.1 ms and the ST worked out at 26.7 ± 0.4 ms. In the data set with Female ICR mice (setting [10]), this compound registered an HR of 761.3 ± 7.5 BPM, a QRS of 11.1 ± 0.2 ms, a QT of 38.1 ± 0.6 ms and a QTc of 43.0 ± 0.6 ms. Further, in the data set with Female ICR mice (setting [10]), the RR is listed as 78.8 ± 0.8 ms and the ST is recorded as 26.6 ± 0.5 ms. In the data set on Female ICR mice (setting [11]), this compound returned an HR of 755.0 ± 1.0 BPM, a QRS of 11.5 ± 0.1 ms, a QT of 39.1 ± 0.9 ms and a QTc of 43.9 ± 0.9 ms. In the data set with Female ICR mice (setting [11]), this compound displayed an RR of 79.5 ± 0.1 ms and an ST of 28.1 ± 0.8 ms. In the data set on Female ICR mice (setting [12]), this compound came in with an HR of 798.0 ± 12.8 BPM, a QRS of 10.6 ± 0.3 ms, a QT of 39.1 ± 2.4 ms and a QTc of 45.1 ± 2.9 ms. In the data set with Female ICR mice (setting [12]), this compound gave an RR of 75.8 ± 0.2 ms and an ST of 29.0 ± 2.2 ms. The “tumor weight, PBS treated mice relative to treatment group” value in data set [1] (day 31) is given as ~2.4 times. Also, the “TNBC tumor growth (tumor volume)” value in data set [1] (nude mice, LM3-3 tumors) is recorded as “can significantly inhibit TNBC tumor growth”. In data set [2] (mice), the AUCInf was 0.046 ± 0.018 µM·h and the AUClast/D stood at 0.075 ± 0.044 µM·kg·h/mg. The “conversion to parent bufalin in vivo” value in data set [2] (free bufalin detected in plasma) is recorded as “can be converted to parent bufalin in vivo”. The “histological examination of cardiomyocytes” value in the data set on mouse heart tissues was “little damage to cardiomyocytes”.
By IC50 is commonly meant the concentration at which inhibition is half-maximal. As to `C[C@]12CC[C@H](O)C[C@H]1CC[C@@H]1[C@@H]2CC[C@]2(C)[C@@H](c3ccc(=O)oc3)CC[C@]12O` [Bufalin, bufalin], in the data set on LM3-3 cells [3] (12 hour time point), the “toxicity toward LM3-3 cells under motility assay conditions” value was “minimal toxicity”. Besides, the “motility of LM3-3 cells” value in the data set with LM3-3 cells [3] (increasing concentrations of bufalin) is reported as “decreased with increasing concentrations of bufalin”. The IC50 in the data set on SUM149PT was < 20 nM; with HCC1143 it was 71.8 nM; with SUM159PT, < 20 nM; in the data set with MDA-MB-231, < 20 nM; in the data set with MDA-MB-231-LM3-3 it was < 20 nM. Besides, the “binding to SRC-3” value on SRC-3 [4] was “directly binds to SRC-3 in its receptor interacting domain”. In addition, the SRC-3 protein expression entry on SRC-3 [5] (100 nM, HCC1143, SUM149PT, SUM159PT, MDA-MB-231, MDA-MB-231-LM3-3) is recorded as “downregulate SRC-3 protein expression”. In addition, the “SRC-3 protein level, dose dependence” value at SRC-3 [5] (MDA-MB-231-LM3-3) is given as “downregulated SRC-3 in MDA-MB-231-LM3-3 in a dose-dependent manner”. The IC50 values entry in the data set with cancer cells is “low nM range”. The “synergy with gefitinib on cell viability” value in the data set on LM3-3 cells [6] (5 or 10 nM bufalin with gefitinib, LM3-3 cells) is “synergize with gefitinib”.
Turning to `COc1cc2ncnc(Nc3ccc(F)c(Cl)c3)c2cc1OCCCN1CCOCC1` [gefitinib], the “toxicity in LM3-3 cells” value with LM3-3 cells [6] (gefitinib alone, up to 20 μM) is given as “minimal toxicity”.
